Experimental findings from article PMC10313671, “Accelerating the prediction and discovery of peptide hydrogels with human-in-the-loop” (Nature Communications, 2023) are described below.

The nature of data set [1]: Peptide hydrogel formation, vial-inverting method. The conditions noted are these: for State: ultrasonication, standing 48 h; for State / GELATION: vial-inverting method; for Concentration: concentration at which the state was recorded: lowest of 30, 60, 90, 120 mM that gave a gel, 120 mM for non-gelating peptides; for GELATION: 1 = hydrogel, 0 = no hydrogel. Details: key to EXP / GELATION: 0: no hydrogel; 1: hydrogel. The class given is physicochemical. The method, then:
After validating the efficiency of APHC in predicting tetrapeptide hydrogels, we detailed the phase state of 165 synthesized tetrapeptides and the observed assembly behavior in an aqueous solution.
This work defines hydrogel formation as a self-supporting, non-flowing mixture of water and hydrogelator by the vial-inverting method. All purified tetrapeptides were dissolved in ultrapure water (to form a 30 mM solution initially), followed by the stepwise addition of 1 N NaOH solution to adjust the overall aqueous pH to 6.5–8.5. Meanwhile, a short-term ultrasonication treatment was applied after each pH adjustment to facilitate peptide solubilization and speed up peptide self-assembly. […] The mixture was allowed to stand in for another 48 h for complete hydrogelation. Upon the absence of gelation phenomenon during the aforementioned loops, we increased the peptide concentration (60 mM, 90 mM, and 120 mM were selected) and re-started such gelation operation loop to explore their gelation feasibility.

Data set [2] can be described thus: Transmission electron microscope (negative staining) of peptide assemblies. The conditions noted are these: TEM, negative staining with uranyl acetate, 120 kV.
Procedure: We used the negative staining technique to observe the morphologies formed by peptides. A micropipette was used to load 10 μL of sample solution to a carbon-coated copper grid, and we used a piece of filter paper to remove the excess solution. After rinsing the grid with the deionized water, we used uranyl acetate to stain the sample for 1 minute and then rinsed the grid with deionized water again.
[3] abbreviates: 120 mM peptide (highest tested) in ultrapure water, pH 6.5-8.5 (1 N NaOH), precipitate, sol, suspension = no gel.
Setting [4] is: 30 mM peptide in ultrapure water, pH adjusted to 6.5-8.5 with 1 N NaOH, concentration raised 30/60/90/120 mM until gelation.

The structures appear in SMILES notation. Where a SMILES comes first, the peptide text is derived from it.

As to `C[C@H](N)C(=O)N[C@@H](C)C(=O)N[C@@H](C)C(=O)N[C@@H](C)C(=O)O` [AAAA] (H-AAAA-OH), the State result in data set [1] (setting [3]) was “sol”. Also, the “Concentration” value in data set [1] is 120000 µM. In data set [1] (peptide concentration 120 mM), this molecule displayed a GELATION of 0. Further, the Morphology result in data set [2] (line of the table gives 120 mM) is “blank”.

Consider `CC[C@H](C)[C@H](NC(=O)[C@@H](NC(=O)[C@H](C)N)C(C)C)C(=O)N[C@@H](CCC(N)=O)C(=O)O` [AVIQ] (H-AVIQ-OH), for which the State result in data set [1] (setting [3]) is on record as “suspension”. Moreover, in data set [1], the “Concentration” value was 120000 µM. Further, the GELATION in data set [1] (peptide concentration 120 mM) is listed as 0. For the same molecule, the Morphology entry in data set [2] (line of the table gives 120 mM) is recorded as “aggregates”.

For `C[C@H](NC(=O)[C@@H](N)CS)C(=O)N[C@@H](Cc1ccc(O)cc1)C(=O)N[C@@H](Cc1c[nH]c2ccccc12)C(=O)O` [CAYW] (H-CAYW-OH), the State entry in data set [1] (setting [3]) is “precipitate”. In data set [1], the “Concentration” value stood at 120000 µM. Further, the GELATION in data set [1] (peptide concentration 120 mM) stood at 0. Also, the Morphology entry in data set [2] (line of the table gives 120 mM) was “aggregates”.

For `CC(C)C[C@H](NC(=O)[C@H](Cc1ccccc1)NC(=O)[C@@H](N)CS)C(=O)N[C@@H](Cc1c[nH]c2ccccc12)C(=O)O` [CFLW] (H-CFLW-OH), in data set [1] (setting [3]), the State result was “suspension”. The “Concentration” value in data set [1] came to 120000 µM. The GELATION in data set [1] (peptide concentration 120 mM) came out at 0. In addition, the Morphology entry in data set [2] (line of the table gives 120 mM) was “aggregates”.

For the molecule `N[C@@H](CS)C(=O)N[C@@H](Cc1c[nH]cn1)C(=O)N[C@@H](Cc1ccccc1)C(=O)N[C@@H](Cc1c[nH]c2ccccc12)C(=O)O` [CHFW] (H-CHFW-OH), the State result in data set [1] (setting [4]) was “gel”. In data set [1], the “Concentration” value came out at 30000 µM. The GELATION in data set [1] (peptide concentration 30 mM) is 1. Besides, in data set [2] (line of the table gives 30 mM), the Morphology result is “sphere”.

As to `CC[C@H](C)[C@H](NC(=O)[C@@H](N)CS)C(=O)N[C@@H](Cc1ccc(O)cc1)C(=O)N[C@@H](Cc1ccccc1)C(=O)O` [CIYF] (H-CIYF-OH), the State entry in data set [1] (60 mM peptide in ultrapure water, pH 6.5-8.5 (1 N NaOH), no gel at 30 mM) is recorded as “gel”. The “Concentration” value in data set [1] worked out at 60000 µM. In data set [1] (peptide concentration 60 mM), this molecule displayed a GELATION of 1. Besides, the Morphology entry in data set [2] (line of the table gives 60 mM) is “fibre”.

As for `C[C@@H](O)[C@H](NC(=O)[C@@H](N)CS)C(=O)N[C@@H](Cc1ccc(O)cc1)C(=O)N[C@@H](Cc1ccccc1)C(=O)O` [CTYF] (H-CTYF-OH), the State entry in data set [1] (setting [4]) is “gel”. In addition, in data set [1], the “Concentration” value was determined as 30000 µM. In data set [1] (peptide concentration 30 mM), this molecule displayed a GELATION of 1. Further, in data set [2] (line of the table gives 30 mM), the Morphology entry is on record as “fibre”.

In the case of `N[C@@H](CS)C(=O)N[C@@H](Cc1c[nH]c2ccccc12)C(=O)N[C@@H](Cc1ccccc1)C(=O)N[C@@H](CO)C(=O)O` [CWFS] (H-CWFS-OH), the State result in data set [1] (setting [4]) was “gel”. For the same molecule, the “Concentration” value in data set [1] is 30000 µM. In data set [1] (peptide concentration 30 mM), the GELATION stood at 1. In data set [2] (line of the table gives 30 mM), the Morphology entry is on record as “fibre”.

With `C[C@@H](O)[C@H](NC(=O)[C@H](Cc1ccccc1)NC(=O)[C@H](Cc1c[nH]c2ccccc12)NC(=O)[C@@H](N)CS)C(=O)O` [CWFT] (H-CWFT-OH), the State entry in data set [1] (setting [3]) was “suspension”. Also, the “Concentration” value in data set [1] amounted to 120000 µM. Besides, in data set [1] (peptide concentration 120 mM), the GELATION is 0. In data set [2] (line of the table gives 120 mM), the Morphology entry is “aggregates”.

In data set [1] (peptide concentration 120 mM), `CC(C)C[C@H](NC(=O)[C@@H](NC(=O)[C@H](Cc1ccccc1)NC(=O)[C@@H](N)CCCCN)C(C)C)C(=O)O` [KFVL] (H-KFVL-OH) gave a GELATION of 0.

`CC(C)C[C@H](NC(=O)[C@@H](NC(=O)[C@H](Cc1ccccc1)NC(=O)[C@@H](N)CCCCN)C(C)C)C(=O)O` [LYS-PHE-VAL-LEU] (H-KFVL-OH) showed an EXP in data set [1] (experimental gelation result of the synthesized peptide) of 0.

`C[C@@H](O)[C@H](N)C(=O)N[C@@H](CCC(N)=O)C(=O)N[C@@H](Cc1ccccc1)C(=O)N[C@@H](CO)C(=O)O` [TQFS] (H-TQFS-OH): the GELATION in data set [1] (peptide concentration 120 mM) came to 0.

Regarding `CC(C)[C@H](N)C(=O)N[C@@H](Cc1ccccc1)C(=O)NCC(=O)N[C@H](C(=O)O)C(C)C` [VFGV] (H-VFGV-OH), the State entry in data set [1] (setting [3]) is “sol”. In addition, the “Concentration” value in data set [1] turned out to be 120000 µM. Moreover, the GELATION in data set [1] (peptide concentration 120 mM) came out at 0.
